# Assays:
# Format in all cases: in vivo
# [1] = tested on: carrageenan-induced prostatitis model in male Sprague-Dawley rats; assay: Pelvic pain (von Frey filaments) in carrageenan-induced prostatitis model
# [2] = tested on: carrageenan-induced prostatitis model in male Sprague-Dawley rats; assay: as above; remark: listed apart in the source
# Experimental: Animals were acclimatized to the laboratory conditions for at least 3 days before the start of experiments. Rats were housed in groups of 2 in polysulfone type Sealsafe plus GR900 cages (Tecniplast, Lyon, France) on a bed of wood chips with free access to food and water ad libitum. Species appropriate environmental enrichment was added to the cages. The animal house was maintained under artificial lighting 7:00 a.m. to 7:00 p.m. in a controlled ambient temperature of 22±2° C., and relative humidity maintained at 55±10%.
# Mechanical stimulation was performed using von Frey filaments of different forces.
# For each day of administration, the stock solution was allowed to equilibrate to room temperature under stirring, for at least 30 min.
# Carrageenan was purchased from Sigma-Aldrich. Carrageenan (prepared fresh each day of injection) was dissolved in sterile physiological saline at a final concentration of 30 mg/mL (w/v).
# Seven experimental groups of 10 animals were included in this study as described in the table below.
# (§1) At D0, D+1, D+3 and D+7 administrations were performed 2 h prior to von Frey testing. […] On the morning of each experimental day, rats were weighed and administrations were performed at a volume of 5 mL/kg.
# (§2) Surgical procedures were performed in morning, as follows: anaesthesia was induced by 5% isoflurane and maintained with 2.5% isoflurane for the duration of the procedure. The surgical area (lower abdomen above the penis) and the scrotal skin were shaved. An incision was made in the skin and abdominal wall to expose both ventral lobes of the prostate gland. Carrageenan (30 mg/mL) was injected in both right and left ventral lobes of the prostate (˜12.5 μL per lobe).
# Control rats were injected with physiological saline under the same experimental conditions as carrageenan (i.e. i.prost., ˜12.5 μL per lobe).
# After i.prost. injection, the wounds in both muscles were closed using absorbable suture and the skin layers were closed using permanent suture.
# Pelvic pain was evaluated in a non-blinded manner by applying 6 von Frey filaments of increasing forces (0.16, 0.4, 0.6, 1, 1.4 and 2 g) to the scrotum area, with an interval of 5 seconds between each filament.
# Prior to testing, the scrotal skin area designated for mechanical stimulation of each animal was shaved. Animals were placed on a raised wire mesh floor under individual transparent Plexiglas boxes and acclimatized for at least 30 min before starting the von Frey test. Filaments were then applied 1-2 seconds through the mesh floor with enough strength to cause the filament to slightly bend. Each filament was tested 3 times with an interval of 5 seconds between each application.
# Nociceptive behavioral scores to von Frey filaments were assessed just before saline or carrageenan injection, in order to obtain basal values (D0), and at defined time points (D+1, D+3 and D+7) after saline or carrageenan injection.
# Nociceptive behaviors were scored for each animal and each filament as follows: […]
# [3] = tested on: carrageenan-induced pelvic pain in male Sprague-Dawley rats; assay: Previous study: carrageenan-induced pelvic pain, AQX-1125 3, 10 and 30 mg/kg
# Source text: An animal model of inflammation-induced pelvic pain for inflammatory CP/CPPS was developed and validated using intraprostatic (i.prost.) injection of carrageenan in male Sprague-Dawley rats (adapted from Radhakrishnan, R. and Nallu, R. S., 2009. Development and characterization of a novel animal model of prostate inflammation-induced chronic pelvic pain, Inflammopharmacology, 17: 23-28). This animal model was characterized by both referred mechanical allodynia (decreased mechanical threshold in response to innocuous von Frey forces) and referred mechanical hyperalgesia (increased nociceptive scores in response to noxious von Frey forces) (Augé C. et al., 2012, Nociceptive measures in chronic prostatitis: a model of inflammation-induced pelvic pain in rats, 14th World Congress on Pain (Milan, Italy)).
# [4] = tested on: ventral prostate lobes of carrageenan-injected male Sprague-Dawley rats; assay: Ventral prostate lobes weight 7 days after carrageenan i.prost. injection; details: AQX-1125 0.3, 1, 3 or 10 mg/kg p.o.; seven days after carrageenan injection
# Experimental: The whole prostate and ventral prostate lobes were weighed using a Scout® Pro balance (OHAUS, Nänikon, Switzerland).
# as §1, with “AQX-1125 (0.3, 1, 3 and 10 mg/kg) or saline vehicle were administered orally (p.o.) once a day from D−3 to D+7 for a total of 11 administrations. At” for “At”
# as §2
# After blood sampling, rats were sacrificed by cervical dislocation and the whole prostates were rapidly collected and weighed. Then both ventral prostate lobes were dissected and weighed together.
# [5] = Ibuprofen 300 mg/kg p.o. once at D+3, 1 h prior to testing, p<0.001
SMILES,"nociceptive scores vs vehicle [1, 5]","nociceptive threshold vs vehicle [1, 5]","carrageenan-induced pelvic pain ([1]; Ibuprofen 300 mg/kg, 1 h after oral administration)","nociceptive threshold vs vehicle ([2]; AQX-1125 10 mg/kg p.o. once a day, D+1 p>0.05, D+3 and D+7 p<0.05)","AUC (0.16-2 g) of nociceptive scores vs vehicle ([2]; AQX-1125 10 mg/kg p.o., D+1 p>0.05, D+3 p<0.01, D+7 p<0.05)","nociceptive scores vs vehicle ([2]; AQX-1125 0.3, 1, 3 and 10 mg/kg p.o., all tested time-points (D+1, D+3, D+7))","nociceptive threshold vs vehicle ([2]; AQX-1125 0.3, 1 and 3 mg/kg p.o. once a day, day 1, 3 and 7 post-carrageenan, p<0.05)","AUC (0.16-2 g) of nociceptive scores vs vehicle ([2]; AQX-1125 0.3, 1 and 3 mg/kg p.o., all tested time-points, p<0.01)","significance of effect on nociceptive scores ([2]; AQX-1125 all doses, 10 mg/kg at D1 p=0.0638)",anti-nociceptive properties beyond the optimal dose ([2]; AQX-1125 beyond 3 mg/kg (10 mg/kg p.o.)),"carrageenan-induced pelvic pain ([2]; AQX-1125 daily oral treatments at 0.3, 1 and 3 mg/kg)","dose at which maximal effect was reached ([2]; AQX-1125 p.o. once a day, doses tested 0.3, 1, 3 and 10 mg/kg) [mg/kg]","anti-nociceptive properties on carrageenan-induced pelvic pain ([2]; AQX-1125 repeated oral treatments once a day during 11 days at 0.3, 1 and 3 mg/kg)","optimal dose for pain management ([2]; rat model of carrageenan-induced chronic prostatitis, p.o.) [mg/kg]","anti-nociceptive properties on carrageenan-induced pelvic pain ([3]; AQX-1125 3, 10 and 30 mg/kg p.o. once a day during 11 days)","dose at which maximal effect was reached ([3]; doses tested 3, 10 and 30 mg/kg p.o.) [mg/kg]",ventral prostate lobes weight as a ratio of whole prostate weight [4],ventral prostate lobes weight expressed in mg [4]
"CC(C)Cc1ccc(C(C)C(=O)O)cc1 (racemic) [Ibuprofen, (RS)-2-(4-(2-methylpropyl)phenyl)propanoic acid]",decreases in nociceptive scores,a significant increase in the nociceptive threshold was observed,alleviated carrageenan-induced pelvic pain,,,,,,,,,,,,,,,
"C=C1CC[C@H]2[C@H](CN)[C@@H]([C@@]3(C)CC[C@H](O)C[C@@H]3CO)CC[C@]12C [AQX-1125, (1S,3S,4R)-4-((4R,7aS)-4-(aminomethyl)-7a-methyl-1-methyleneoctahydro-1H-inden-5-yl)-3-(hydroxymethyl)-4-methylcyclohexanol]",,,,reached the significance level only at day 3 and 7,a significant effect was observed only at day 3 and 7,decreases in nociceptive scores were observed,significantly and dose-dependently increased the nociceptive threshold,significant decreases in AUC (0.16-2 g) were observed,"reached significance, except for the 10 mg/kg dose at D1",less pronounced anti-nociceptive properties,significant and dose-related decreases in carrageenan-induced pelvic pain,3,strong anti-nociceptive properties,3,strong anti-nociceptive properties,3,had no effect on ventral prostate lobes weights,had no effect on ventral prostate lobes weights

# Reference: patent publication US20180085460A1, “METHODS OF TREATING PROSTATITIS” (Aquinox Pharmaceuticals (Canada) Inc., priority 2016, published 2018)
